The SangsterLogP compilation
One block for each compound: values may come before it.

Assays:
[1] = method code SF-HPLC, from DOI: 10.1016/0168-3659(92)90067-2
[2] = method code SF-HPLC, from DOI: 10.1016/j.ejps.2015.05.008, PMID: 25968358; conditions: pH 7.4
[3] = method code SF-HPLC, from DOI: 10.1161/01.res.55.4.513, PMID: 6478555
[4] = method code SF, from DOI: 10.1038/bjc.1982.190, PMID: 7150475
[5] = not given; remark: listed apart in the source
[6] = not given; remark: listed apart in the source
[7] = not given; remark: listed apart in the source
[8] = method code SF-AS, from DOI: 10.1021/jm00051a006, PMID: 7996541
[9] = method code SF-HPLC, from DOI: 10.1016/0006-2952(94)90540-1, PMID: 8185676
[10] = method code SF, from DOI: 10.1016/s0378-5173(98)00231-2
[11] = method code SF-HPLC, from DOI: 10.1006/pest.1998.2384
[12] = method code SF-GLC, from DOI: 10.1021/jm00366a019, PMID: 6644745
[13] = method code SF-AS/HPLC, from Ellington, J. J. (1988). Octanol/water partition coefficients for evaluation of hazardous waste land disposal: Selected chemicals. US Environmental Protection Agency, Environmental Research …
[14] = method code SF-RC, from DOI: 10.1016/j.apradiso.2010.08.010, PMID: 20843697; conditions: pH 7.4
[15] = method code SF-AS, from DOI: 10.1211/0022357011776199, PMID: 11428660; conditions: pH 7.4
[16] = not given; remark: listed apart in the source
[17] = method code SF-AS, from DOI: 10.1007/bf02273190
[18] = method code SF-HPLC, from Yu, G.; Xu, X. (1993). Determination of the 1-octanol/water partition coefficient of nitro-PAHs. Huanjing Huaxue, 12(4)299-303.
[19] = method code SF-HPLC, from DOI: 10.1016/0378-5173(90)90184-6; conditions: pH 4.0
[20] = method code SF-AS, from DOI: 10.1016/0300-483x(85)90004-6, PMID: 4024126
[21] = method code SF-RC, from DOI: 10.1002/jlcr.2580210110; conditions: pH 7.4
[22] = not given; remark: listed apart in the source
[23] = method code SF-AS, from DOI: 10.1021/acs.inorgchem.5b01238, PMID: 26280387
[24] = method code SF-AS, from DOI: 10.1016/0006-2952(81)90362-2, PMID: 7271838; conditions: pH 7.5
[25] = method code SF, from DOI: 10.1023/a:1012119527214, PMID: 9453056; conditions: pH 12.5
[26] = method code SF-GLC, from DOI: 10.1016/j.chemosphere.2005.05.003, PMID: 15967478
[27] = method code SF-RC, from DOI: 10.1002/syn.20147; conditions: pH 7.4
[28] = method code SF, from DOI: 10.1016/j.bcp.2004.09.021, PMID: 15627482; conditions: pH 7.0
[29] = method code SF-AS, from Lippold, B.; Lichey, J. (1984). Transport of drugs through lipophilic polymer membranes. II. Influence of the partition and diffusion coefficients. Acta pharmaceutica technologica, 30(2)140-154.
[30] = method code SF-HPLC, from DOI: 10.1248/cpb.37.2861, PMID: 2611948; conditions: pH 4.0
[31] = not given; remark: listed apart in the source
[32] = method code SF-RC, from DOI: 10.1016/s0969-8051(00)00080-9, PMID: 10832080; conditions: pH 13.0
[33] = method code SF-AS, from DOI: 10.1016/s0003-2670(01)80868-0

Structure (SMILES): c1ccc2c(c1)Nc1ccccc1S2
logD [2]: 3.97

Structure (SMILES): CN(C)c1nc(=O)n(C2CCCCC2)c(=O)n1C
logP: 1.85

Structure (SMILES): CN(C)CCSCc1ccccc1
logP [5]: 1.81

Structure (SMILES): COP(=O)(OC)O/C(C)=C/C(=O)OC(C)c1ccccc1 (stereo not drawn)
logP [6]: 3

Structure (SMILES): Clc1cc(Cl)c2oc3c(Cl)c(Cl)c(Cl)c(Cl)c3c2c1Cl
logP [7]: 7.93

Structure (SMILES): CC[C@@]1(Br)C(=O)NC(=O)N([C@H]2C[C@H](O)[C@@H](CO)O2)[C@H]1OC
logP [9]: 0.4

Structure (SMILES): C#CCN1CCN(Cc2ccc(Cl)nc2)C1=N[N+](=O)[O-]
logP [11]: 0.29

Structure (SMILES): N[C@@H]1C[C@@H]2C[C@H]1c1ccc(C(F)(F)F)cc12
logD ([12]; pH 12.0): 3.21

Structure (SMILES): Cc1cccc(C)c1NC(=O)CN
logP [3]: 0.41

Structure (SMILES): CC(C)N(C(=O)SC/C(Cl)=C/Cl)C(C)C
logP [13]: 4.49

Structure (SMILES): O=C(NCCN1C(=O)C=CC1=O)c1cncc(I)c1
logD [14]: 0.63

Structure (SMILES): CC(=O)N(C)c1ccc(S(=O)(=O)N(C)C)cc1
logP [17]: 0.23

Structure (SMILES): CNC1CC2c3ccccc3C1C2O (stereo not drawn)
logD ([12]; pH 13.0): 0.91

Structure (SMILES): CCN(CC)CC(=O)NCC(=O)Nc1c(C)cccc1C
logD [25]: 2.2

Structure (SMILES): CN1C[C@@H](N)C[C@@H]2c3cccc4[nH]cc(c34)C[C@H]21
logP [5]: 0.4

Structure (SMILES): FC12CC3CC(CC(C3)C1)C2
logD [21]: 5.7

Structure (SMILES): CCCCOCC(O)Cn1ccnc1[N+](=O)[O-] (stereo not drawn)
logD ([4]; pH 7.4): 1.11

Structure (SMILES): COC(C)(C(=O)O)c1ccc2ccccc2c1 (stereo not drawn)
logP [22]: 3.18

Structure (SMILES): C=CCN1CCN(Cc2ccc(Cl)nc2)C1=N[N+](=O)[O-]
logP [11]: 0.51

Structure (SMILES): CCCCC1(C(=O)OCCC)CCC=[N+]1[O-] (stereo not drawn)
logD [28]: 1.16

Structure (SMILES): CCCCNC(=O)NS(=O)(=O)c1ccc(N)cc1
logP [29]: 1.18

Structure (SMILES): O=C(NCCN1C(=O)C=CC1=O)c1cccc(I)c1
logD [14]: 1.03

Structure (SMILES): CCCCC1(C(=O)OC(C)CC)CCC=[N+]1[O-] (stereo not drawn)
logD [28]: 1.59

Structure (SMILES): C#CC(C)(C)NC(=O)c1cc(Cl)cc(Cl)c1
logP [13]: 3.43

Structure (SMILES): CCCCC(=O)c1ccccc1
logD [2]: 3.03

Structure (SMILES): CCCCOC(=O)c1ccc(N)cc1
logD [24]: 3.05

Structure (SMILES): ClC1=C(Cl)C2(Cl)C3C4C=CC(C4)C3C1(Cl)C2(Cl)Cl (stereo not drawn)
logP [6]: 5.67

Structure (SMILES): CCC(=O)N(C)c1ccc(S(=O)(=O)N(C)C)cc1
logP [17]: 0.71

Structure (SMILES): Clc1cc2c(oc3c(Cl)cc(Cl)c(Cl)c32)c(Cl)c1Cl
logP [7]: 7.51

Structure (SMILES): COc1ccc(Cn2cc(F)c(=O)[nH]c2=O)cc1
logD [30]: 1.04

Structure (SMILES): CN1C2CCC1C(c1ccccn1)C2 (stereo not drawn)
logD [32]: 1.34

Structure (SMILES): CCCCCCNC(=O)n1cc(F)c(=O)[nH]c1=O
logD [19]: 2.63

Structure (SMILES): COc1ccc(C[C@H](NC(C)=O)C(=O)N[C@H](Cc2ccc(OC)cc2)C(N)=O)cc1
logP [1]: 1.19

Structure (SMILES): Cc1cccc(C)c1NC(=O)CN(C)C
logD [25]: 1.23

Structure (SMILES): C=C1CCC2CC1C2(C)C (stereo not drawn)
logP [26]: 4.43

Structure (SMILES): CO[C@@H]1N([C@H]2C[C@H](N=[N+]=[N-])[C@@H](CO)O2)C(=O)NC(=O)[C@@]1(C)Br
logP [8]: 1.22

Structure (SMILES): Cc1ccc(Cn2cc(F)c(=O)[nH]c2=O)cc1
logD [30]: 1.5

Structure (SMILES): CN1C2CCC1C(c1cccnc1)C2 (stereo not drawn)
logD [32]: 1.65

Second part, the compound after the results:

logP [1]: -0.7
Structure (SMILES): CC(=O)NC(Cc1ccc(O)cc1)C(N)=O (stereo not drawn)

logP [3]: 1.32
Structure (SMILES): CCNCC(=O)Nc1c(C)cccc1C

logP [4]: 0.93
Structure (SMILES): O=[N+]([O-])c1nccn1CC(O)CN1CCCCC1 (stereo not drawn)

logP: 3.81
Structure (SMILES): CCSc1nc(NC(C)C)nc(NC(C)C)n1

logP [8]: 0.52
Structure (SMILES): CO[C@H]1N([C@H]2C[C@H](N=[N+]=[N-])[C@@H](CO)O2)C(=O)NC(=O)[C@@]1(C)Cl

logP [10]: 2.33
Structure (SMILES): OCCCCc1ccccc1

logP [9]: 0.4
Structure (SMILES): CC[C@]1(Cl)C(=O)NC(=O)N([C@H]2C[C@H](O)[C@@H](CO)O2)[C@@H]1OC

logD [15]: 0.27
Structure (SMILES): Cc1ncc([N+](=O)[O-])n1CCOC(=O)CN1CCOCC1

logP [16]: 1.64
Structure (SMILES): CN(C)Cc1ccc(CSCCNc2[nH]ccc2[N+](=O)[O-])o1

logP [18]: 3.99
Structure (SMILES): O=[N+]([O-])c1ccc2c(c1)Cc1ccccc1-2

logD [19]: 3.9
Structure (SMILES): CCCCCCCCNC(=O)n1cc(F)c(=O)[nH]c1=O

logP [20]: 0.67
Structure (SMILES): CC(C)(C)c1ccc(N2C(=O)CCC2=O)cc1

logD [21]: 5
Structure (SMILES): FC(F)(c1ccccc1)C(F)(F)c1ccccc1

logD [15]: 0.03
Structure (SMILES): CCN(CC)CC(=O)OCCn1c([N+](=O)[O-])cnc1C

logP [22]: 3.1
Structure (SMILES): O=C(O)c1ccc2ccccc2c1

logP [23]: 1.97
Structure (SMILES): CCSC(=S)C=C(O)c1ccc(O)cc1

logD [24]: 3.32
Structure (SMILES): CCCCOC(=O)c1ccc(O)cc1

logP [16]: 1.98
Structure (SMILES): CCN/C(=N/C#N)NCCSCc1ncccc1Br

logP [10]: 3.59
Structure (SMILES): OCCCCCCCc1ccccc1

logP [26]: 4.59
Structure (SMILES): C=C1C=CC(C(C)C)CC1 (stereo not drawn)

logD [27]: 3.2
Structure (SMILES): Cc1nc(C#Cc2cc(F)cc(C#N)c2)cs1

logP [29]: 2.7
Structure (SMILES): CC(C1=C(CCN(C)C)Cc2ccccc21)c1ccccn1 (stereo not drawn)

logP [31]: 5.53
Structure (SMILES): Brc1ccc(-c2ccccc2)c(Br)c1

logP [20]: 1.37
Structure (SMILES): CC(=O)c1ccc(N2C(=O)CCC2=O)cc1

logP [23]: 1.93
Structure (SMILES): CCSC(=S)C=C(O)c1ccccc1

logP [31]: 6.2
Structure (SMILES): Brc1cccc(-c2cc(Br)ccc2Br)c1

logD [27]: 2.8
Structure (SMILES): N#Cc1cc(F)cc(C#Cc2ccccn2)c1

logP [33]: 4.88
Structure (SMILES): CCCCCC(=O)CC(=O)CCCCC

logP [18]: 3.2
Structure (SMILES): O=[N+]([O-])c1ccc(-c2ccc([N+](=O)[O-])cc2)cc1

logP [33]: 3.56
Structure (SMILES): CCCCC(=O)CC(=O)CCCC
